Reference: patent publication US10449221B2, “Differentiation of stem cells into thyroid tissue” (TRUSTEES OF BOSTON UNIVERSITY, priority 2015, dated 2019)
Entries after “also recorded” stand apart in the source; their conditions may differ.

Tests used:
Xenopus embryos = test: Xenopus whole embryo culture in pathway antagonists, in-situ hybridization for thyroid markers; type: in vivo; conditions: for nkx2-1 induction in the developing thyroid primordium: inhibitor from stage NF13 through NF35, XAV939 50 μM, BMS493 10 μM; for induction of thyroid markers foxe1, nkx2-1, pax2 and hhex: inhibitor from stage NF13 until NF20, DMH-1 40 μM, SU5402 10 μM
Method: Xenopus embryos were generated by in vitro fertilization and assayed by in situ hybridization or confocal immunostaining as previously described (Rankin et al., 2015). Small molecule inhibitors were dissolved in DMSO according to manufacturer's instructions and added to the embryo culture saline at the following working concentrations: 10 μM SU5402 (Tocris Bioscience), 40 μM DMH-1 (Sigma), 50 μM XAV939 (Sigma) and 10 μM BMS493 (Tocris Bioscience). Foregut explants were dissected from stage NF15 and treated with Dispase (BD Pharmingen) for 15 minutes and then the mesoderm was manually removed. Foregut endoderm was then cultured in 0.5× Modified Barth's Saline with 0.1% BSA with or without 500 ng/ml rhFGF2 and 50 ng/ml rhBMP4 (R&D systems).

pSmad1/5 = test: Western blot of pSmad1/5 content in mouse foregut explants; type: cell-based; conditions: 24 hours of treatment, DMH-1 1.5 μM vs vehicle
Method: (§1) Whole foreguts were dissected from E8.5 embryos (6-8 somite pairs) in Hank's balanced salt solution (HBSS) then explanted onto 8 μm pore size Whatman Nucleopore Track-Etch Membranes (Millipore). Explants were cultured for 2-3 days in a base medium (BGJb medium (Gibco)+10% fetal bovine serum (FBS, Sigma) and 0.2 mg/ml ascorbic acid) containing either the BMPR inhibitor DMH-1 (1.5 μM, Tocris) or DMSO as a vehicle control. Whole mount immunostaining was performed using a modification of the method of Ahnfelt-Ronne et al. (Ahnfelt-Ronne et al., 2007). The primary antibodies used were: guinea pig anti-Nkx2-1 (Seven Hill Bioreagents; 1:500), rabbit anti-Pax8 (Protein Tech; 1:500) and rat anti-Ecad (R&D; 1:2000). After staining, samples were cleared with Murray's clear (2:1 benzyl benzoate: benzyl alcohol) and imaged using a Nikon A1Rsi inverted laser confocal microscope. Imaris software was used to analyze the images. DMH-1 treated and control explants were harvested and lysed in Laemmli buffer after 24 hours of treatment. Lysates were electrophoresed on a 10-20% Tris-glycine gel under reducing conditions, Western blotted, and probed with antibodies (Cell Signaling) to detect total Smad1/5 and pSmad 1/5 content; β-actin content served as a loading control.

mouse foregut explants = test: Mouse E8.5 whole foregut explant culture, whole mount immunostaining for Nkx2-1 and Pax8; type: cell-based; conditions: 6-8 somite foreguts, 2-3 days, DMH-1 1.5 μM vs DMSO
Method: as §1

[1] = system: Nkx2-1GFP+; Pax8tdTomato trace+ iPSC-derived cells; test: Lineage specification of bifluorescent reporter iPSC line by day 14; type: cell-based, mouse; conditions: data not shown; for efficiency of lineage specification of Nkx2-1GFP+; Pax8tdTomato trace+ cells: Wnt inhibitor added to induction media; for efficiency of lineage specification, percent yield of GFP+/tdTomato+ cells: factor withdrawn or removed from the Nkx2-1 induction media
Nkx2-1mCherry ESC line = test: Maturation of ESC-derived Nkx2-1mCherry+ thyroid progenitors, marker mRNA by RT-PCR; type: cell-based, mouse; conditions: for thyroid specific gene expression: media used from D22 to D26, RT-PCR at Day 26
Method: Further differentiation and maturation of Nkx2-1+ sorted cells was performed in either 2D or 3D culture conditions, as indicated in the text. For 2D differentiation cells sorted on day 14 were replated and grown for 8 more days in cSFDM supplemented with 250 ng/ml mFGF2, 100 ng/ml hFGF10 and 100 ng/ml Heparin Sodium Salt. […] During the first 48 hours after sorting media was supplemented with 10 μM Y27632 (Sigma Y0503). From day 20-26 5 μg/ml ITS was included in the media. […] For cultures longer than 30 days, cells were splitted using Dispase (Corning 354235) on Day 30 and re-embedded in pure Matrigel, and fed with thyroid maturation media until the harvest day indicated in the text. RNA (for FIGS. 1 to 3 and 11c) was extracted from cells using the RNeasy kit (Qiagen 74104) following the manufacturer's protocol. 150 ng of RNA was reverse transcribed to cDNA using TaqMan reverse transcription reagents (Applied Biosystems N8080234) and the manufacturer's protocol. cDNA template was diluted 1:4, and 2 μl of the diluted template was used per 25 μl real time PCR reaction using Taqman Fast Universal PCR Master Mix (Applied Biosystems 4352042) and run in technical triplicates up to 40 cycles of PCR on the Applied Biosystems StepOne machine. Alternatively, 1 μl of the diluted template was used per 13 μl real time reaction on the Applied Biosystems 7900HT Real Time PCR System. Relative gene expression, normalized to 18S control, was calculated as fold change in 18S-normalized gene expression, over baseline, using the 2^(-ΔΔCT) method. Baseline, defined as fold change=1, was set to undifferentiated embryonic stem cell levels, or if undetected, a cycle number of 40 was assigned to allow fold change calculations. For FIGS. 5 and 11 (except FIG. 11c) total RNA was extracted from cultured cells using Stat-60 reagent (Tel-Test Cs-502). Then, 150 ng of total RNA was reverse transcribed using a SuperScript Vilo cDNA synthesis kit from Invitrogen. qPCR was performed in duplicate using the 800HT thermal cycler (Applied Biosystems). Relative mRNA levels were calculated using the standard curve method and normalized to peptidylprolyl isomerase A (cyclophilin). Cyclophilin expression was quantified with custom-made primers and probe (Forward primer: [NT]. ID. NO: 1), Reverse primer: [NT]. ID. NO: 2; Probe: [NT]. ID. NO: 3).

[2] = system: ESC-derived definitive endoderm; test: Nkx2-1+ endoderm induction from ESC-derived endoderm, specification media day 6-14, flow cytometry on day 14; type: cell-based, mouse; conditions: for Nkx2-1+ cell specification by day 14: factor(s) present in induction media day 6-14; for Nkx2-1+ endodermal induction efficiency: sequential withdrawal of each individual factor from the WFKBE+2 cocktail
Method: Definitive endoderm induction was performed in complete serum-free differentiation medium (cSFDM) consisting of 75% IMDM (Invitrogen 12440) and 25% Ham's Modified F12 medium (Cellgro 10-080-CV) supplemented with N2 and B27+RA (Invitrogen 17502-048 and 17504-44), 0.05% BSA (Invitrogen 15260-037), […] L-glutamine (Invitrogen 25030-081), 0.05 mg/ml ascorbic acid (Sigma A4544) and 4.5×10^-4M MTG (Sigma M6145) as previously described (Gouon-Evans et al., 2006, Longmire et al., 2012). Undifferentiated ESCs were trypsinized to form a single cell suspension and plated onto Petri dishes (500,000 cells/10 cm dish) resulting in the formation of embryoid bodies (EBs) over 60 hours. EBs were dissociated by trypsinization (0.05%, 1 min, 37° C.) and plated as single cells into cSFDM supplemented with 50 ng/ml Activin A (R&D systems 338-AC) for an additional 60 hours. For Anteriorization of endoderm, on day 5 (120 total hours of differentiation) EBs were plated onto p100 Petri dishes in Nog/SB media: cSFDM supplemented with 100 ng/ml mNoggin (R&D 1967-NG) and 10 μM SB431542 (Sigma S4317) as previously described (Longmire et al., 2012). For Nkx2-1+ endoderm induction, EBs were plated on gelatin coated 6 well plates at the equivalent density of 200,000 cells/well in Specification media: cSFDM supplemented as stated in the text with 100 ng/ml mWnt3a (R&D 1324-WN), 10 ng/ml hFGF10 (R&D 345-FG), 10 ng/ml mKGF (R&D 5028-KG), 10 ng/ml mBMP4 (R&D 5020-BP), 20 ng/ml hEGF (R&D 236-EG), 250 ng/ml mFGF2 (R&D 3139-FB) and 100 ng/ml Heparin Sodium Salt (Sigma […]2-1mCherry+ cells, or the populations otherwise indicated in the text were sorted using MoFlo or […] II SORP high speed cell sorters and replated onto gelatin-coated 24 well plates on day 12-14 at a density of 5×10^4 cells/well. Where indicated in the text, small molecule inhibitors were dissolved in DMSO according to manufacturer's instructions and added to the culture media from day 6 to 14 at the following working concentrations: Dorsomorphin 4 μM (Sigma P5499), PD98059 20 μM, SB203580 10 μM (both from Cell Signaling Technology, PHZ1164 and 5633), and LY294002 […] (Promega V1201).

In the case of `CC1(C)CC=C(C#Cc2ccccc2)c2cc(/C=C/c3ccc(C(=O)O)cc3)ccc21` [BMS493], the “nkx2-1 induction in the developing thyroid primordium” value (Xenopus embryos) is reported as “normal nkx2-1 induction”.

With `CC(C)Oc1ccc(-c2cnc3c(-c4ccnc5ccccc45)cnn3c2)cc1` [DMH-1] the “induction of thyroid markers foxe1, nkx2-1, pax2 and hhex” value (Xenopus embryos) was “abrogated induction of all four thyroid markers in the vast majority of embryos”, the “phosphorylation of SMAD1/5/8, pSmad1/5 content” value (pSmad1/5) was “substantial reduction in pSmad1/5 content; also recorded: marked reduction in phosphorylation of SMAD1/5/8” and the “induction of Nkx2-1 and Pax8, thyroid bud formation” value (mouse foregut explants) was “no thyroid bud was apparent; also recorded: blocked induction of both Nkx2-1 and Pax8”.

With `Cc1c[nH]c(/C=C2\C(=O)Nc3ccccc32)c1CCC(=O)O` [SU5402] the “induction of thyroid markers foxe1, nkx2-1, pax2 and hhex” value (Xenopus embryos) was “abrogated induction of all four thyroid markers in the vast majority of embryos”.

With `Oc1nc(-c2ccc(C(F)(F)F)cc2)nc2c1CSCC2` [XAV939, reference compound] the “nkx2-1 induction in the developing thyroid primordium” value (Xenopus embryos) was “normal nkx2-1 induction” and the “efficiency of lineage specification of Nkx2-1GFP+; Pax8tdTomato trace+ cells” value [1] was “no significant impact”.

With `Nc1ncnc2c1ncn2[C@@H]1O[C@@H]2COP(=O)(O)O[C@H]2[C@H]1O` [cAMP, cyclic adenosine monophosphate, reference compound] the “thyroid specific gene expression” value (Nkx2-1mCherry ESC line) was “increase thyroid specific gene expression” and the maturation marker expression (Nkx2-1mCherry ESC line; withdrawal of the factor from the DCI+K cocktail, day 22-26) was “adversely affected maturation”.

In the case of “fibroblast growth factor 2 (basic) [FGF2]”, the “Nkx2-1+ cell specification by day 14” value [2] is reported as “induced low numbers of Nkx2-1+ cells with little thyroid competence”, the “Nkx2-1+ endodermal induction efficiency” value [2] is reported as “indispensible for efficient Nkx2-1+ endodermal induction” and the “efficiency of lineage specification, percent yield of GFP+/tdTomato+ cells” value [1] is reported as “significant decrease in the percent yield of GFP+/tdTomato+ cells”.

thyroid stimulating hormone [TSH] was tested, and the “Nis, Tsh-r, and Tpo expression” value (Nkx2-1mCherry ESC line; TSH added after lineage specification, day 14-22) was “significant augmentation of Nis, Tsh-r, and Tpo expression”, the “expression of lineage markers Nkx2-1 and Pax8” value (Nkx2-1mCherry ESC line; TSH added day 14-22, data not shown) was “no significant change” and the “efficiency of thyroid lineage specification” value (Nkx2-1mCherry ESC line; TSH added prior to lineage specification, day 9-12, data not shown) was “no detectable effect”. For the same molecule, the “Nis and Tsh-r expression” value (Nkx2-1mCherry ESC line; additional 3 days of culture maturation in the presence of TSH (Day 25 vs Day 22)) was “further augmentation of Nis and Tsh-r expression”, the “thyroid specific gene expression” value (Nkx2-1mCherry ESC line) was “increase thyroid specific gene expression” and the “thyroid maturation marker Nis” value (Nkx2-1mCherry ESC line; substitution of TSH for cAMP in the DCI+K media, day 22-26) was “most robust augmentation of the thyroid maturation marker, Nis”.

B1: bone morphogenetic protein 4 (protein, UniProt P12644 293-408, looked up)
Bone morphogenetic protein 4: SPKHHSQRARKKNKNCRRHSLYVDFSDVGWNDWIVAPPGYQAFYCHGDCPFPLADHLNSTNHAIVQTLVNSVNSSIPKACCVPTELSAISMLYLDEYDKVVLKNYQEMVVEGCGCR
notes: growth factor in specification media
B1 was tested, and the “Nkx2-1+ cell specification by day 14” value [2] was “induced low numbers of Nkx2-1+ cells with little thyroid competence”, the “Nkx2-1+ endodermal induction efficiency” value [2] was “indispensible for efficient Nkx2-1+ endodermal induction” and the “efficiency of lineage specification, percent yield of GFP+/tdTomato+ cells” value [1] was “significant decrease in the percent yield of GFP+/tdTomato+ cells”.

B2: Dkk1: Wnt inhibitor (protein, UniProt O94907 32-266, looked up)
Dickkopf-related protein 1: TLNSVLNSNAIKNLPPPLGGAAGHPGSAVSAAPGILYPGGNKYQTIDNYQPYPCAEDEECGTDEYCASPTRGGDAGVQICLACRKRRKRCMRHAMCCPGNYCKNGICVSSDQNHFRGEIEETITESFGNDHSTLDGYSRRTTLSSKMYHTKGQEGSVCLRSSDCASGLCCARHFWSKICKPVLKEGQVCTKHRRKGSHGLEIFQRCYCGEGLSCRIQKDHHQASNSSRLHTCQRH
In the case of B2, the “efficiency of lineage specification of Nkx2-1GFP+; Pax8tdTomato trace+ cells” value [1] is reported as “no significant impact”.
